The first assay deals with HCV genotype 1 b (HCV replicon system). The assay can be described thus: HCV replicon system genotype 1b, Renilla luciferase activity. The format is cell-based. The note with it: Hepatitis C virus, 72 h; HCV genotype 1b replicon, Rluc, 3 days; range limits given with own units (pM to nM); read-out: Replicon EC50 1b type. Here is the method: From human liver cells (Huh7.5.1 cell) infected by hepatitis C virus, the anti-virus effects by the compound of the present invention were measured. From HCV genotype 1 b (HCV replicon system), genotype 2a (HCV cell culture system, HCVcc), and genotype 3a, the EC50 values were measured.
In order to measure the EC50 value from HCV genotype 1 b, the degrees of HCV replication inhibitory activities of an experimental compound were measured. The EC50 value was measured by treating the experimental compound with the HCV replicon systems (genotype 1 b) having Renilla luciferase (Rluc) genes and genotype 1 b non-structure genes under various concentration conditions to compare the activity degree of the luciferase after 3 days elapsed time with that of the control.
For orientation: Replicon systems follow genome replication, usually without infectious particles.
On to `COCCOCCn1c2cc(NC(=O)[C@@H]3CCCN3C(=O)[C@H](NC(=O)OC)c3ccccc3)ccc2c2ccc(NC(=O)[C@@H]3CCCN3C(=O)[C@H](NC(=O)OC)c3ccccc3)cc21` [Example 22, dimethyl ((1R,1′R)-((2S,2′S)-(((9-(2-(2-methoxyethoxy)ethyl)-9H-carbazole-2,7-diyl)bis(azanediyl))bis(carbonyl))bis(pyrrolidine-2,1-diyl))bis(2-oxo-1-phenylethane-2,1-diyl))dicarbamate], for which the EC50 is 250 to 1250 pM.

The same assay, now with this note: Hepatitis C virus, 72 h; HCV genotype 1b replicon, Rluc, 3 days; read-out: Replicon EC50 1b type.
`COC(=O)N[C@H](C(=O)N1CCC[C@H]1C(=O)Nc1ccc2c3ccc(NC(=O)[C@@H]4CCCN4C(=O)[C@@H](NC(=O)OC)C(C)C)cc3n(C)c2c1)C(C)C` [Example 9, dimethyl ((2S,2′S)-((2S,2′S)-(((9-methyl-9H-carbazole-2,7-diyl)bis(azanediyl))bis(carbonyl))bis(pyrrolidine-2,1-diyl))bis(3-methyl-1-oxobutane-1,2-diyl))dicarbamate]: the EC50 was above 100000 pM. In the case of `CC(C)[C@@H](C(=O)N1CCC[C@H]1C(=O)Nc1ccc2c3ccc(NC(=O)[C@@H]4CCCN4C(=O)[C@H](C(C)C)N4CCOC4=O)cc3n(C)c2c1)N1CCOC1=O` [Example 10, (2S,2′S)—N,N′-(9-methyl-9H-carbazole-2,7-diyl)bis(1-((S)-3-methyl-2-(2-oxazolidine-3-yl)butanoyl)pyrrolidine-2-carboxamide)], the EC50 is above 100000 pM. For the compound `COC(=O)N[C@@H](C(=O)N1CCC[C@H]1C(=O)Nc1ccc2c3ccc(NC(=O)[C@@H]4CCCN4C(=O)[C@H](NC(=O)OC)c4ccccc4)cc3n(CCN3CCN(C)CC3)c2c1)c1ccccc1` [Example 11], the EC50 was 10000 to 100000 pM.

Turning to `COC(=O)N[C@@H](C(=O)N1CCC[C@H]1C(=O)Nc1ccc2c3ccc(NC(=O)[C@@H]4CCCN4C(=O)[C@H](NC(=O)OC)c4ccccc4)cc3n(CCN3CCOCC3)c2c1)c1ccccc1` [Example 12, dimethyl ((1R,1′R)-((2S,2′S)-(((9-(2-morpholinoethyl)-9H-carbazole-2,7-diyl)bis(azanediyl))bis(carbonyl))bis(pyrrolidine-2,1-diyl))bis(2-oxo-1-phenylethane-2,1-diyl))carbamate], the EC50 was 1000 to 10000 pM.

Take `COC(=O)N[C@@H](C(=O)N1CCC[C@H]1C(=O)Nc1ccc2c3ccc(NC(=O)[C@@H]4CCCN4C(=O)[C@H](NC(=O)OC)c4ccccc4)cc3n(Cc3ccccn3)c2c1)c1ccccc1` [Example 17, dimethyl ((1R,1′R)-((2S,2′S)-(((9-(pyridine-2-ylmethyl)-9H-carbazole-2,7-diyl)bis(azanediyl))bis(carbonyl))bis(pyrrolidine-2,1-diyl))bis(2-oxo-1-phenylethane-2,1-diyl))dicarbamate]: the EC50 lay in the range of 50 to 250 pM. As to `COC(=O)N[C@@H](C(=O)N1CCC[C@H]1C(=O)Nc1ccc2c3ccc(NC(=O)[C@@H]4CCCN4C(=O)[C@H](NC(=O)OC)c4ccccc4)cc3n(Cc3cccnc3)c2c1)c1ccccc1` [Example 18, dimethyl ((1R,1′R)-((2S,2′S)-(((9-(pyridine-3-ylmethyl)-9H-carbazole-2,7-diyl)bis(azanediyl))bis(carbonyl))bis(pyrrolidine-2,1-diyl))bis(2-oxo-1-phenylethane-2,1-diyl))dicarbamate], the EC50 was 50 to 250 pM. The same measure, in the same setting: the result for `COCCOCCOCCn1c2cc(NC(=O)[C@@H]3CCCN3C(=O)[C@H](NC(=O)OC)c3ccccc3)ccc2c2ccc(NC(=O)[C@@H]3CCCN3C(=O)[C@H](NC(=O)OC)c3ccccc3)cc21` [Example 23, dimethyl ((1R,1′R)-((2S,2′S)-(((9-(2-(2-(2-methoxyethoxy)ethoxy)ethyl)-9H-carbazole-2,7-diyl)bis(azanediyl))bis(carbonyl))bis(pyrrolidine-2,1-diyl))bis(2-oxo-1-phenylethane-2,1-diyl))dicarbamate] reads above 1000 pM; that for `CCCCCCCCCCn1c2cc(NC(=O)[C@@H]3CCCN3C(=O)[C@H](NC(=O)OC)C(C)C)ccc2c2ccc(NC(=O)[C@@H]3CCCN3C(=O)[C@H](NC(=O)OC)C(C)C)cc21` [Example 25, dimethyl ((2R,2′R)-((2S,2′S)-(((9-decyl-9H-carbazole-2,7-diyl)bis(azanediyl))bis(carbonyl))bis(pyrrolidine-2,1-diyl))bis(3-methyl-1-oxobutane-1,2-diyl))dicarbamate], above 1000 pM; that for `CCCCCCOc1ccccc1Cn1c2cc(NC(=O)[C@@H]3CCCN3C(=O)[C@H](NC(=O)OC)c3ccccc3)ccc2c2ccc(NC(=O)[C@@H]3CCCN3C(=O)[C@H](NC(=O)OC)c3ccccc3)cc21` [Example 35, dimethyl ((1R,1′R)-((2S,2′S)-(((9-(2-(hexyloxy)benzyl)-9H-carbazole-2,7-diyl)bis(azanediyl))bis(carbonyl))bis(pyrrolidine-2,1-diyl))bis(2-oxo-1-phenylethane-2,1-diyl))dicarbamate], around 1000 pM. Same read-out and setting: next, `COCCOCCOc1cccc(Cn2c3cc(NC(=O)[C@@H]4CCCN4C(=O)[C@H](NC(=O)OC)c4ccccc4)ccc3c3ccc(NC(=O)[C@@H]4CCCN4C(=O)[C@H](NC(=O)OC)c4ccccc4)cc32)c1` [Example 40, dimethyl ((1R,1′R)-((2S,2′S)-(((9-(3-(2-(2-methoxyethoxy)ethoxy)benzyl)-9H-carbazole-2,7-diyl)bis(azanediyl))bis(carbonyl))bis(pyrrolidine-2,1-diyl))bis(2-oxo-1-phenylethane-2,1-diyl))dicarbamate]: 10 to 100 pM. Consider `CCCCC(CCCC)n1c2cc(NC(=O)[C@@H]3CCCN3C(=O)[C@H](NC(=O)OC)c3ccccc3)ccc2c2ccc(NC(=O)[C@@H]3CCCN3C(=O)[C@H](NC(=O)OC)c3ccccc3)cc21` [Example 46, dimethyl ((1R,1′R)-((2S,2′S)-(((9-(nonane-5-yl)-9H-carbazole-2,7-diyl)bis(azanediyl))bis(carbonyl))bis(pyrrolidine-2,1-diyl))bis(2-oxo-1-phenylethane-2,1-diyl))dicarbamate], for which the concentration giving a half-maximal response (EC50) was around 10 pM. `COC(=O)N[C@@H](C(=O)N1CCC[C@H]1C(=O)Nc1ccc2c3ccc(NC(=O)[C@@H]4CCCN4C(=O)[C@H](NC(=O)OC)c4ccccc4)cc3n(CC3CCCC3)c2c1)c1ccccc1` [Example 47, dimethyl ((1R,1′R)-((2S,2′S)-(((9-(cyclopentylmethyl)-9H-carbazole-2,7-diyl)bis(azanediyl))bis(carbonyl))bis(pyrrolidine-2,1-diyl))bis(2-oxo-1-phenylethane-2,1-diyl))dicarbamate]: the EC50 was around 10 pM. Consider `CCCCn1c2cc(NC(=O)[C@@H]3CCCN3C(=O)[C@@H](NC(=O)OC)C(C)C)ccc2c2ccc(-c3c[nH]c([C@@H]4CCCN4C(=O)[C@@H](NC(=O)OC)C(C)C)n3)cc21` [Example 53, methyl ((S)-1-((S)-2-((9-butyl-7-(2-((S)-1-((methoxycarbonyl)-L-valyl)pyrrolidine-2-yl)-1H-imidazole-4-yl)-9H-carbazole-2-yl)carbamoyl)pyrrolidine-1-yl)-3-methyl-1-oxobutane-2-yl)carbamate], for which the EC50 is above 10000 pM.

As usually defined, the EC50 is the concentration giving half of the maximal effect.

(Values after patent US10421779B2, “Carbazole compound having anti-virus activity” (priority 2016, dated 2019).)
